According to patent publication US20240300942A1, “SMALL MOLECULES FOR TREATEMENT OF CANCER” (VRise Therapeutics Inc., priority 2021, published 2024):

How the values were obtained:
[1] = tested on: NCI-H358 cell line; assay: In vitro cell proliferation assay (CCK-8) in NCI-H358 cell line; format: cell-based; conditions: Homo sapiens, 72 hours; for inhibition at 10 µM: TC2: Test Concentration of 10 uM
Description: (§1) Growth inhibition assays is to be carried out using 10% FBS supplemented media. Cells are to be seeded at a desired concentration of 1,500-6,000 cells/well in a 96-well plate. Test compounds at a concentration range from 1 to 30 uM will be added after 24 hours. Growth will be assessed using the CCK-8 kit for measuring reduction at 0 h (prior to the addition of the test compound) and 72 hours after the addition of test compound. Absorbance read on a BIO-RAD iMark Microplate or any equivalent microplate reader at a wavelength of 450 nm. Data was analysed and percent inhibition due to the test compound compared to the control is calculated accordingly.

[2] = tested on: MIAPACA-2 cell line; assay: In vitro cell proliferation assay (CCK-8) in MIAPACA-2 cell line; format: cell-based; conditions: Homo sapiens, MIA PaCa-2, 72 hours; for inhibition at 3 µM: TC1: Test Concentration of 3 uM; for inhibition at 10 µM: TC2: Test Concentration of 10 uM
Description: as §1

| Structure (SMILES) | inhibition at 10 µM [1] [%] | inhibition at 3 µM [2] [%] | inhibition at 10 µM [2] [%] | inhibition at 3 µM ([1]; TC1: Test Concentration of 3 uM) [%] |
| --- | --- | --- | --- | --- |
| C=CC(=O)N1CCN(c2nc(N3CCN(C(=O)C=C)CC3)c3c(c2C#N)CN(c2cccc4ccccc24)CC3)CC1 [Ex 46, 1,3-bis(4-acryloylpiperazin-1-yl)-6-(naphthalen-1-yl)-5,6,7,8-tetrahydro-2,6-naphthyridine-4-carbonitrile] | 75 to 100 | – | – | – |
| C=CC(=O)N1CCN(c2nc(OC[C@@H]3CCCN3C)c(C#N)c3c2CCN(c2cccc4ccccc24)C3)C[C@H]1CC#N [Ex 18, 1-((R)-4-acryloyl-3-(cyanomethyl)piperazin-1-yl)-3-(((S)-1-methylpyrrolidin-2-yl)methoxy)-6-(naphthalen-1-yl)-5,6,7,8-tetrahydro-2,6-naphthyridine-4-carbonitrile] | – | 75 to 100 | 75 to 100 | – |
| C=CC(=O)N1CCN(c2nc(N3CC(C)OC(C)C3)c(C#N)c3c2CCN(c2cccc4ccccc24)C3)C[C@@H]1CC#N (single isomer, unassigned) [Ex 14] | – | 75 to 100 | 75 to 100 | – |
| C=CC(=O)Oc1nc(N2CCN(C(=O)C=C)CC2)c2c(c1C#N)CN(Cc1ccccc1)CC2 [Ex 33, 1-(4-acryloylpiperazin-1-yl)-6-benzyl-4-cyano-5,6,7,8-tetrahydro-2,6-naphthyridin-3-yl acrylate] | ≤ 25 | – | – | – |
| C=CC(=O)N1CCN(c2nc(N3CCN(C)CC3)c(C#N)c3c2CCN(c2cccc4ccccc24)C3)CC1 [Ex 41, 1-(4-acryloylpiperazin-1-yl)-3-(4-methylpiperazin-1-yl)-6-(naphthalen-1-yl)-5,6,7,8-tetrahydro-2,6-naphthyridine-4-carbonitrile] | 25 to 50 | – | – | – |
| C=CC(=O)N1CCN(c2nc(N3CCCCC3)c(C#N)c3c2CCN(c2cccc4ccccc24)C3)CC1 [Ex 44, 1-(4-acryloylpiperazin-1-yl)-6-(naphthalen-1-yl)-3-(piperidin-1-yl)-5,6,7,8-tetrahydro-2,6-naphthyridine-4-carbonitrile] | ≤ 25 | – | – | – |
| C=CC(=O)N1CCN(c2nc(OC[C@@H]3CCCN3C)c(C#N)c3c2CCN(c2cc(O)cc4ccccc24)C3)CC1CC#N (stereo partly drawn) [Ex 19, 1-(4-acryloyl-3-(cyanomethyl)piperazin-1-yl)-6-(3-hydroxynaphthalen-1-yl)-3-(((S)-1-methylpyrrolidin-2-yl)methoxy)-5,6,7,8-tetrahydro-2,6-naphthyridine-4-carbonitrile] | – | 75 to 100 | 75 to 100 | – |
| C=CC(=O)N1CCN(c2nc(OC[C@@H]3CCCN3C)c(C#N)c3c2CCN(c2cc(O)cc4ccccc24)C3)CC1 [Ex 9, (S)-1-(4-acryloylpiperazin-1-yl)-6-(3-hydroxynaphthalen-1-yl)-3-((1-methylpyrrolidin-2-yl)methoxy)-5,6,7,8-tetrahydro-2,6-naphthyridine-4-carbonitrile] | – | 75 to 100 | 75 to 100 | – |
| C=C(F)C(=O)N1CCN(c2nc(OC[C@@H]3CCCN3C)c(C#N)c3c2CCN(c2cccc4cccc(Cl)c24)C3)C[C@@H]1CC#N [Ex 27, 6-(8-chloronaphthalen-1-yl)-1-((S)-3-(cyanomethyl)-4-(2-fluoroacryloyl)piperazin-1-yl)-3-(((S)-1-methylpyrrolidin-2-yl)methoxy)-5,6,7,8-tetrahydro-2,6-naphthyridine-4-carbonitrile] | 75 to 100 | – | – | 50 to 75 |
| C=C(F)C(=O)N1CCN(c2nc(OC[C@@H]3CCCN3C)c(C#N)c3c2CCN(c2cccc4ccccc24)C3)CC1CC#N (stereo partly drawn) [Ex 20, 1-(3-(cyanomethyl)-4-(2-fluoroacryloyl)piperazin-1-yl)-3-(((S)-1-methylpyrrolidin-2-yl)methoxy)-6-(naphthalen-1-yl)-5,6,7,8-tetrahydro-2,6-naphthyridine-4-carbonitrile] | – | 50 to 75 | 75 to 100 | – |
| C=CC(=O)N1CCN(c2nc(OC[C@@H]3CCCN3C)c(C#N)c3c2CCN(c2cccc4cccc(Cl)c24)C3)CC1 [Ex 8, (S)-1-(4-acryloylpiperazin-1-yl)-6-(8-chloronaphthalen-1-yl)-3-((1-methylpyrrolidin-2-yl)methoxy)-5,6,7,8-tetrahydro-2,6-naphthyridine-4-carbonitrile] | – | 25 to 50 | 75 to 100 | – |
| C=CC(=O)N1CCN(c2nc(N3CC(C)OC(C)C3)c(C#N)c3c2CCN(c2cccc4ccccc24)C3)CC1CC#N (racemic) [Ex 13, 1-(4-acryloyl-3-(cyanomethyl)piperazin-1-yl)-3-(2,6-dimethylmorpholino)-6-(naphthalen-1-yl)-5,6,7,8-tetrahydro-2,6-naphthyridine-4-carbonitrile] | – | 75 to 100 | 75 to 100 | – |
| C=C(F)C(=O)N1CCN(c2nc(OC[C@@H]3CCCN3C)c(C#N)c3c2CCN(c2ncnc4ccccc24)C3)CC1 [Ex 10, (S)-1-(4-(2-fluoroacryloyl)piperazin-1-yl)-3-((1-methylpyrrolidin-2-yl)methoxy)-6-(quinazolin-4-yl)-5,6,7,8-tetrahydro-2,6-naphthyridine-4-carbonitrile] | – | 75 to 100 | 75 to 100 | – |
| C=CC(=O)N1CCN(c2nc(N3CCS(=O)(=O)CC3)c(C#N)c3c2CCN(c2cccc4ccccc24)C3)CC1 [Ex 1, 1-(4-acryloylpiperazin-1-yl)-3-(1,1-dioxidothiomorpholino)-6-(naphthalen-1-yl)-5,6,7,8-tetrahydro-2,6-naphthyridine-4-carbonitrile] | – | – | 75 to 100 | – |
| C=C(F)C(=O)N1CCN(c2nc(OC[C@@H]3CCCN3C)c(C#N)c3c2CCN(c2cccc4cccc(Cl)c24)C3)CC1C (stereo partly drawn) [Ex 12, 6-(8-chloronaphthalen-1-yl)-1-(4-(2-fluoroacryloyl)-3-methylpiperazin-1-yl)-3-(((S)-1-methylpyrrolidin-2-yl)methoxy)-5,6,7,8-tetrahydro-2,6-naphthyridine-4-carbonitrile] | – | 50 to 75 | 75 to 100 | – |
| C=CC(=O)N1CCN(c2nc(N3CC(C)OC(C)C3)c(C#N)c3c2CCN(c2cccc4ccccc24)C3)C[C@H]1CC#N (single isomer, unassigned) [Ex 15] | – | 75 to 100 | 75 to 100 | – |
| C=CC(=O)N1CCN(c2nc(OC[C@@H]3CCCN3C)c(C#N)c3c2CCN(c2cccc4ccccc24)C3)C[C@@H]1CC#N [Ex 17, 1-((S)-4-acryloyl-3-(cyanomethyl)piperazin-1-yl)-3-(((S)-1-methylpyrrolidin-2-yl)methoxy)-6-(naphthalen-1-yl)-5,6,7,8-tetrahydro-2,6-naphthyridine-4-carbonitrile] | – | 75 to 100 | 75 to 100 | – |
| C=CS(=O)(=O)N1CCN(c2nc(OC[C@@H]3CCCN3C)c(C#N)c3c2CCN(c2cccc4cccc(Cl)c24)C3)CC1 [Ex 11, (S)-6-(8-chloronaphthalen-1-yl)-3-((1-methylpyrrolidin-2-yl)methoxy)-1-(4-(vinylsulfonyl)piperazin-1-yl)-5,6,7,8-tetrahydro-2,6-naphthyridine-4-carbonitrile] | – | 75 to 100 | 75 to 100 | – |
| C=CC(=O)N1CCN(c2nc(OC[C@@H]3CCCN3C)c(C#N)c3c2CCN(c2cncc4ccccc24)C3)CC1 [Ex 21, (S)-1-(4-acryloylpiperazin-1-yl)-6-(isoquinolin-4-yl)-3-((1-methylpyrrolidin-2-yl)methoxy)-5,6,7,8-tetrahydro-2,6-naphthyridine-4-carbonitrile] | – | 50 to 75 | 50 to 75 | – |
